Measured values: patent US20090221532A1 (priority 2005, published 2009)

Key:
[1] = Stella reports, cited from earlier work
[2] = Population pharmacokinetic model (linear 5-compartment, NONMEM) of venous plasma concentrations; design: species or system human; conditions: population PK model; lean body weight covariate
[3] = Pharmacokinetic/pharmacodynamic models (probabilistic and continuous) for level of sedation (MOAA/S score); design: species or system human; conditions: subjects older than 65
patients = conditions: anesthetic induction doses; Bryson et al.; cited from earlier work

Compound | Stability at pH levels suitable for making pharmaceutical formulations [1] | Breakdown in vivo under physiological conditions ([1]; administered intravenously) | Increase of central volume of propofol generated from the prodrug [2] | Increase of central volume of the prodrug [2] | Increase of clearance of the prodrug [2] | Lowering of effect site concentration at which a given MOAA/S score is attained, versus younger subjects ([3]; continuous model) | Lowering of effect site concentration at which a given MOAA/S score is attained, versus younger subjects ([3]; probabilistic model) | Patients with respiratory consequences, including a reduction in tidal volume and apnea (patients)
CC(C)c1cccc(C(C)C)c1OCOP(=O)([O-])[O-].[Na+].[Na+] [propofol prodrug, O-phosphonooxymethyl propofol disodium salt] | good stability | quickly breaks down in vivo | 2.5 % per kg of LBW over 55 kg | 1.8 % per kg of LBW over 55 kg | 1.4 % per kg of LBW over 55 kg | about 25% | about 33% | –
CC(C)c1cccc(C(C)C)c1O [propofol] | – | – | – | – | – | – | – | up to 83%
